The values that follow come from patent publication US5932217A, “Peptides which inhibit adhesion between leukocytes and endothelial cells” (priority 1994, dated 1999).

The subject of test [1] is human umbilical vein endothelial cells. Description: Transendothelial migration of neutrophils. The format is cell-based. Particulars: peptides 0.01 mM. The method, then:
Transendothelial migration of neutrophils was studied based on a method described by Muller et al. (1992), J. Exp. Med. 176: 819-828. Briefly, human neutrophils suspended in ice-cold Hanks balanced salt solution (HBSS) containing Ca^++ and Mg^++ (Sigma) were fluoresceinated by adding 3.3 μl/ml 5-(and 6-)carboxyfluorescein diacetate, succinimidyl ester (CFSE, Molecular Probes Inc., Oreg.). After incubation for 30 mins. on ice, neutrophils were washed twice in cold HBSS with Ca^++ and Mg^++ and resuspended in cold Medium 199 (M199, Sigma) to a final concentration of 10^6 /ml. Human umbilical vein endothelial cells were subcultured at confluence into 96-well tissue culture plates (Becton Dickinson Labware, Lincoln Park, N.J.) that were coated with hydrated collagen gel (Vitrogen; Collagen Corporation, Palo Alto, Calif.) and fibronectin. Endothelial cells were stimulated with 10 ng/ml TNF-alpha for 4 hours and washed three times with warm M199. Neutrophils (10^6 /ml) were preincubated with 0.01 mM of peptides or with 1 μM of native FHA in M199 for 5 mins. on ice before they were added in 100 μl aliquots to the endothelial cells. For positive control, neutrophils were pre-incubated with 25 μg/ml anti-CD18 mAb IB4. For negative control, neutrophils were treated with 25 μg/ml mAb W6/32 against HLA class I antigen (Dako, Carpinteria, Calif.). The cells were incubated for 1 hour at 37° C., 5% CO2. To terminate transmigration, the supernatant fluid was aspirated and the wells were filled with warm 1 mM EGTA (Sigma) in HBSS without Ca and Mg. The plates were covered with plate sealers (Dynatech, Alexandria, Va.) and centrifuged in an inverted position at 250 g for 3 mins. at room temperature. To remove residual non-transmigrated neutrophils from the endothelial cells, monolayers were washed twice with 200 μl of warm Hanks solution without Ca and Mg. Fluorescence was quantitated using a fluorescence counter (Millipore Cytofluor™ 2300). The percentage of transmigrated neutrophils was determined by comparing the amount of fluorescence of test wells with that measured in collagen- and fibronectin-coated wells without endothelial cells. […] Percent inhibition of transendothelial migration of neutrophils was calculated by comparing the number of transmigrated cells in wells containing neutrophils treated with peptide to neutrophils treated with M199 alone and arbitrarily set at 100% transendothelial migration (TEM).
(§1) The procedures for determining the neutrophil adherence to cultured endothelial cells and the transendothelial migration of neutrophils were identical with those of Example 9. Control values were the same as those shown in Example 9.

Test [2] has the same test system. In words: Adherence of neutrophils to cultured activated endothelial cells. The class given is cell-based. The method, then:
Human umbilical vein endothelial cells (HUVEC, first passage, Clonetics, San Diego, Calif.) were subcultured at confluence into Terasaki tissue culture wells. After 24 hours, confluent monolayers were used for adherence assays. Monolayers were stimulated with 10 ng/ml TNF alpha (Boehringer Mannheim, Indianapolis, Ind.) at 37° C. for four hours. 30 μl of human neutrophils (10^6 /ml) were labeled with fluorescein by the method of Lo et al. (1991), J. Exp. Med. 173 1493-1500, and preincubated for 15 minutes at 37° C. with 20 μl of peptides (0.5 mM in HAP) or HAP (phosphate buffered saline containing 0.5 mg/ml human serum albumin, 3 mM glucose, and 0.3 U/ml aprotinin) as a control buffer. For some experiments, endothelial cells ere pretreated from 10 minutes with Factor X or antibodies against Factor X receptor (EPR-1; Altieri et al. (1990), J. Immunol. 145, 246-253) 12H1 and 9D4 (obtained from Dr. D. Altieri, Scripps Research Institute, LaJolla, Calif.) and then washed. Neutrophils were allowed to adhere to the monolayer for 15 mins. at 37° C. and unbound cells were removed by submersion of the plate in PBS buffer. The number of adherent neutrophils was counted in a 40× microscope field and expressed as a percentage of adherence in control wells with neutrophils treated with HAP buffer alone. The mAb IB4 against CD18 (50 μg/ml; Merck Inc., Rahway, N.J.) served as a positive control.
The ability of FHA peptides and anti-CD18 or anti-Factor X receptor antibodies to interact cooperatively to inhibit neutrophil adherence to endothelial cells was assessed by measuring neutrophil adherence to endothelial cells in the presence of antibody as well as antibody plus peptide. Anti-CD18 mAb IB4 was added to leukocytes at 10 μg/ml 10 min before the assay. Anti-Factor X receptor mAb 12H1 (10 μl of ascites) or 9D4 (10 μg/ml) were added to the endothelial cell monolayers 10 min before the assay. The peptides were added at 5 μg/ml. The results are shown in Table 8 where the numerical values are in % of control binding.
as §1

Turning to Filamentous hemagglutinin [native FHA], the “% Inhibition of TEM” value is given as 82 ± 1% in test [1] (FHA 1 μM, mAb IB4 25 μg/ml); 82±1% in test [1] (FHA 1 μM, mAb IB4 25 μg/ml, listed as Intact FHA); 82±1% in test [1] (native FHA 1 μM, mAbs 25 μg/ml). For the same substance, the “concentration at which loss of activity (≤20% inhibition) occurred” value in test [2] is given as 10^-3 μM. In addition, the “maximal inhibition of neutrophil attachment” value in test [2] (FIG. 25B) is ~ 50%. Further, in test [2] (Native FHA 50 ug/ml (0.2 uM), FHA peptide C 1 mg/ml (0.2 mM)), the “inhibition of adherence of human neutrophils to cultured endothelial cells” value is 51±7%. For the same substance, the “reduction of neutrophil adherence to stimulated HUVEC” value in test [2] (native FHA 25 μg/ml=0.3 μM, mAb IB4 50 μg/ml) is recorded as 51±8%.
With Ac-ETKEVDG-NH2 [Acetyl/Amide-FHA II], the “% Inhibition of TEM” value came out at 61 ± 6% in test [1] (native FHA 1 μM, mAbs 25 μg/ml) and 61±6% in test [1] (native FHA 1 μM, mAbs 25 μg/ml, listed as acetyl/amide modified FHA peptide II). For the same substance, the “inhibition of neutrophil adherence to stimulated HUVEC, comparison in words” value in test [2] (peptides 0.5 mM, FIG. 17) is listed as “significantly enhanced”.
